Where two headings read alike, the source gives them in different places.
Legend:
[1] = system: genes involved in cholesterol homeostasis; experiment: mRNA expression in mouse brain after voriconazole; format: in vivo, C57/B6 J mice; details: 5 daily i.p. injections 60 mg/kg
Method: (§1) The mice were sacrificed by cervical dislocation.
Total RNA was obtained from brain and liver tissue using Trizol (Invitrogen, Carlsbad, Calif.). cDNA was synthesised from 2 μg of total RNA using Capacity cDNA ReverseTranscription Kit (Applied Biosystems, Foster City, Calif.). Steady-state mRNA levels were estimated using Taqman probes (primer sequences available on request). All assays were run on an ABI Prism 7000 Sequense Detection System (Applied Biosystems; Foster City, Calif.). Estimation of a relative gene expression was performed using the comparative threshold cycle method, using hypoxathine-guanine phosphoribosyl transferase as endogenous control.

CYP11A1 = biological target: T1, CYP11A1 (Bos taurus, UniProt P00189); experiment: Spectral binding assay of antifungal azoles; design: species or system bovine
T1 construct: Recombinant full-length human CYPs 46A1 and 27A1 and bovine CYP11A1 were expressed and purified; made in house
T1 sequence (P00189 40-520): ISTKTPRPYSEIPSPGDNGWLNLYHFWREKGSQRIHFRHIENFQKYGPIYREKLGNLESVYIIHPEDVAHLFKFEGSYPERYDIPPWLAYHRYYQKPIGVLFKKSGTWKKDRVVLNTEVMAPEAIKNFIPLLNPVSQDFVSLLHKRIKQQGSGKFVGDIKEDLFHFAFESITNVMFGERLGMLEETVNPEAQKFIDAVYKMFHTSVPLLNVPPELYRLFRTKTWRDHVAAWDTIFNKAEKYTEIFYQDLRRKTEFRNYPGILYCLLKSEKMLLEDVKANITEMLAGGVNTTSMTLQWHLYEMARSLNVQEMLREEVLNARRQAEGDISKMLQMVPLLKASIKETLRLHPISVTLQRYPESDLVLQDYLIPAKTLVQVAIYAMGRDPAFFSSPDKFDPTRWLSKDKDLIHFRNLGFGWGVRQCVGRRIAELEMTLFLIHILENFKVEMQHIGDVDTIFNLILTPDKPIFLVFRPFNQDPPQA
Method: (§2) Titrations of CYP46A1 were carried out in 50 mM potassium phosphate buffer (KPi), pH 7.2, containing 100 mM NaCl and 0.02% Cymal 6. CYPs 11A1 and 27A1 were in 50 mM KPi without any additives. Antifungal drugs were added from 0.2-5 mM stocks in 50% methanol. The apparent Kd and maximal absorbance change were estimated by non-linear least squares fitting using the quadratic form of the single-site binding equation (9).

CYP46A1 [2] = biological target: T2, CYP46A1 (Homo sapiens, UniProt Q9Y6A2); experiment: In vitro IC50 and Ki for CYP46A1-catalysed hydroxylation; format: biochemical; design: Recombinant full-length human CYPs 46A1 and 27A1 and bovine CYP11A1 were expressed and purified; made in house; details: for IC50: 5.4 μM cholesterol
T2 sequence (Q9Y6A2 whole entry): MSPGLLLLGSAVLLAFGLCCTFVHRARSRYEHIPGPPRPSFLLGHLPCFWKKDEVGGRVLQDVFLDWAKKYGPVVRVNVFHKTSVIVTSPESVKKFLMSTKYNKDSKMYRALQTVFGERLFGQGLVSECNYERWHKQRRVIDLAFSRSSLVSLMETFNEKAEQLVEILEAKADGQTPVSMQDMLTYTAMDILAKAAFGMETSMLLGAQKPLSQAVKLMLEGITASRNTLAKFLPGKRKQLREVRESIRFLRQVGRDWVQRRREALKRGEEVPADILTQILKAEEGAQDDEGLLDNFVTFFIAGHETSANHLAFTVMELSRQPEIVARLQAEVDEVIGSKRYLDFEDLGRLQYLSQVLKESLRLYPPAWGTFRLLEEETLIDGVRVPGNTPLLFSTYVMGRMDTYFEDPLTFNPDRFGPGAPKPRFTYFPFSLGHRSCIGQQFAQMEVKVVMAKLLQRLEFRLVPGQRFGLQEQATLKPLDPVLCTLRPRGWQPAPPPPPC
Method: Cholesterol hydroxylation by CYP46A1 was assayed for 20 min at 37° C. in 1 ml of 50 mM KPi, pH 7.2, containing 100 mM NaCl, 0.02% Cymal 6, 40 μg dilauroylglycerol-3-phosphatidylcholine and 2U of catalase. […] The enzymatic reaction was initiated by NADPH (final 1 mM) and terminated by vortexing with 2 ml of CH2Cl2. The organic phase was isolated, evaporated, dissolved in methanol, and subjected to HPLC. […] In addition, the Ki for cholesterol 24-hydroxylation was estimated assuming a model of competitive inhibition.

CYP46A1 [3] = biological target: T2, CYP46A1; experiment: Spectral binding assay of antifungal azoles; design: Recombinant full-length human CYPs 46A1 and 27A1 and bovine CYP11A1 were expressed and purified; made in house; details: 0.3 μM purified P450; read-out: estimated Kd
Method: as §2

CYP27A1 = biological target: T3, CYP27A1 (Homo sapiens, UniProt Q02318); experiment: Spectral binding assay of antifungal azoles; details: up to 100 μM
T3 construct: Recombinant full-length human CYPs 46A1 and 27A1 and bovine CYP11A1 were expressed and purified; made in house
T3 sequence (Q02318 34-531): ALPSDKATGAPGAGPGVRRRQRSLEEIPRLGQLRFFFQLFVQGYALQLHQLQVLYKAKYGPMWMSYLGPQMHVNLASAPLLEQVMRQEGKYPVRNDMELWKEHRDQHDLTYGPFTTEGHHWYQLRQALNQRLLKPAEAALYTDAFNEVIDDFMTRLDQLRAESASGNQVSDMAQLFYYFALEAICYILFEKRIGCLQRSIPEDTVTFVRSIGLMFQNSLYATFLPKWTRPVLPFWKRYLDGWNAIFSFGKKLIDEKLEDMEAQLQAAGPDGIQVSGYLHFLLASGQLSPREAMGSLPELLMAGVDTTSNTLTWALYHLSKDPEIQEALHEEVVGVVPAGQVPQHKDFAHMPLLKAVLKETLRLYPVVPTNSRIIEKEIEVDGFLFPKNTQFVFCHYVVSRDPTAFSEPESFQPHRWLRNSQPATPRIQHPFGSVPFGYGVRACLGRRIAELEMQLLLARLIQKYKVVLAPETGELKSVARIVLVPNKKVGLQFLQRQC
Method: as §2

[4] = system: Cholesterol 24S-Hydroxylase (CYP46A1); experiment: Plasma oxysterol levels in voriconazole-treated mice
Method: Seven week old male C57/B6 J mice from Charles River were injected intraperitoneally with voriconazole (60 mg/kg or 75 mg/kg, corresponding to 0.6 and 0.75 ml, respectively, of the drug solution). The control mice were injected with the same solutions containing no voriconazole. The mice were sacrificed by cervical dislocation. Brain and liver were collected, snap frozen in liquid nitrogen and stored at −80° C.

[5] = system: Cholesterol 24S-Hydroxylase (CYP46A1); experiment: Brain sterol levels in mice after intraperitoneal voriconazole; format: in vivo, C57/B6 J mice
Method: as §1
Lipids were extracted from the brain according to Folch with some modifications. Approximately 10 mg of brain tissue was added to 1 ml of homogenization buffer (5 mM EDTA, 50 μg/ml butylated hydroxytoluene in phosphate-buffered saline, pH 7,4) in a clean glass tube, and the tissue was disrupted using a polytron homogeniser. Three milliliters of chloroform:methanol (2:1, v:v) were added to the homogenate and the vials were mixed by vortexing. Samples were centrifuged at 10,000 g for 10 min. The organic phase was transferred to a new vial. The aqueous phase was re-extracted as described previously three more times. The pooled organic phase was dried under stream of argon gas, and chloroform:methanol (2:1, v:v) added to the dried samples to achieve suitable concentration.

[6] = 60 mg/kg i.p. once a day for 5 days

## C[C@@H](c1ncncc1F)[C@](O)(Cn1cncn1)c1ccc(F)cc1F [voriconazole]
[1]
  effect on HMG CoA reductase mRNA levels: significant suppressive effect
  effect on expression of CYP46A1 mRNA: no significant effect
  effect on expression of HMG CoA synthase mRNA: no significant effect
CYP11A1; 0.3 μM purified P450, read-out: apparent Kd
  Kd: 4800 nM
CYP11A1; CYP11A1 vs CYP46A1
  binding weaker than that to CYP46A1: ~100 fold
CYP46A1 [2]; read-out: IC50 for cholesterol 24-hydroxylation
  IC50: 22 nM
CYP46A1 [2]; estimated, competitive inhibition, cholesterol equal to the Km, read-out: Ki for cholesterol 24-hydroxylation
  Ki: 11 nM
CYP46A1 [2]; read-out: IC50 for 25- and 27-hydroxylations of 24S-hydroxycholesterol
  IC50: 47 nM
CYP46A1 [3]
  Kd: 50 nM
CYP27A1
  spectral response: only a very weak spectral shift was observed
[4]; pool of plasma, voriconazole-treated mice (control 18.8)
  plasma concentration of 24S-hydroxycholesterol: 13.2 ng/mL
[4]; voriconazole-treated mice
  effect on plasma level of 27-hydroxycholesterol: not significantly affected
[4]; voriconazole-treated mice (controls 52)
  plasma level of 27-hydroxycholesterol: 46 ng/mL
[4]; vs control pool
  suppression of plasma levels of 24S-hydroxycholesterol: about 30%
[5]; [6]
  effect on the levels of 27-hydroxycholesterol in the brain: no effect
  effect on the levels of cholesterol in the brain: no effect
[5]; 60 mg/kg i.p. once a day for 5 days, p<0.05
  level of lathosterol in the brain: significantly reduced
[5]; 60 mg/kg i.p. once a day for 5 days, p=0.03
  reduction in the levels of 24S-hydroxycholesterol in the brain: 37%
[5]; different doses (60 or 75 mg/kg i.p.), six hours after the injection
  levels of 24S-hydroxycholesterol in the brain: appeared to reduce the levels of 24S-hydroxycholesterol
[5]; single 60 mg/kg i.p., 2 hours
  effect on levels of lathosterol in the brain: no significant effect
  effect on levels of total cholesterol in the brain: no significant effect
[5]; single 60 mg/kg i.p., 2 hours, not statistically significant (p>0.05)
  reduction of levels of 24S-hydroxycholesterol in the brain: 20%
[5]; voriconazole-treated mice (controls 0.14+0.05)
  brain levels of dehydrolanosterol: 1.9+0.7 ng/mg tissue
[5]; voriconazole-treated mice (controls 2.2+0.8), p=0.05
  brain levels of squalene: 1.7+0.6 ng/mg tissue
[5]; voriconazole-treated mice (controls 6.1+2.0), p<0.001
  brain levels of lanosterol: 27+10 ng/mg tissue
